The assay addresses GCN2 kinase (Homo sapiens, UniProt Q9P2K8). Kind of assay: GCN2 enzyme inhibition assay (Transcreener ADP2 fluorescence polarization). The format is biochemical. To be noted: compounds of Formula II; 280 μM ATP, 4 nM GCN2 kinase. The method in brief:
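FP detection of ADP (antibody plus Alexa633 tracer) after a 1 h, 25 °C kinase reaction. Enzyme 4 nM, ATP 280 μM, (RS)7 peptide 200 μM, Tris pH 7.5 buffer with MgCl2 and DTT. Percent inhibition fitted by non-linear tight-binding algorithm for IC50 and Ki(app).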
Background: Fluorescence polarisation rises when a labelled molecule tumbles more slowly, as on binding a larger partner.

GCN2 kinase, sequence (Q9P2K8 whole entry): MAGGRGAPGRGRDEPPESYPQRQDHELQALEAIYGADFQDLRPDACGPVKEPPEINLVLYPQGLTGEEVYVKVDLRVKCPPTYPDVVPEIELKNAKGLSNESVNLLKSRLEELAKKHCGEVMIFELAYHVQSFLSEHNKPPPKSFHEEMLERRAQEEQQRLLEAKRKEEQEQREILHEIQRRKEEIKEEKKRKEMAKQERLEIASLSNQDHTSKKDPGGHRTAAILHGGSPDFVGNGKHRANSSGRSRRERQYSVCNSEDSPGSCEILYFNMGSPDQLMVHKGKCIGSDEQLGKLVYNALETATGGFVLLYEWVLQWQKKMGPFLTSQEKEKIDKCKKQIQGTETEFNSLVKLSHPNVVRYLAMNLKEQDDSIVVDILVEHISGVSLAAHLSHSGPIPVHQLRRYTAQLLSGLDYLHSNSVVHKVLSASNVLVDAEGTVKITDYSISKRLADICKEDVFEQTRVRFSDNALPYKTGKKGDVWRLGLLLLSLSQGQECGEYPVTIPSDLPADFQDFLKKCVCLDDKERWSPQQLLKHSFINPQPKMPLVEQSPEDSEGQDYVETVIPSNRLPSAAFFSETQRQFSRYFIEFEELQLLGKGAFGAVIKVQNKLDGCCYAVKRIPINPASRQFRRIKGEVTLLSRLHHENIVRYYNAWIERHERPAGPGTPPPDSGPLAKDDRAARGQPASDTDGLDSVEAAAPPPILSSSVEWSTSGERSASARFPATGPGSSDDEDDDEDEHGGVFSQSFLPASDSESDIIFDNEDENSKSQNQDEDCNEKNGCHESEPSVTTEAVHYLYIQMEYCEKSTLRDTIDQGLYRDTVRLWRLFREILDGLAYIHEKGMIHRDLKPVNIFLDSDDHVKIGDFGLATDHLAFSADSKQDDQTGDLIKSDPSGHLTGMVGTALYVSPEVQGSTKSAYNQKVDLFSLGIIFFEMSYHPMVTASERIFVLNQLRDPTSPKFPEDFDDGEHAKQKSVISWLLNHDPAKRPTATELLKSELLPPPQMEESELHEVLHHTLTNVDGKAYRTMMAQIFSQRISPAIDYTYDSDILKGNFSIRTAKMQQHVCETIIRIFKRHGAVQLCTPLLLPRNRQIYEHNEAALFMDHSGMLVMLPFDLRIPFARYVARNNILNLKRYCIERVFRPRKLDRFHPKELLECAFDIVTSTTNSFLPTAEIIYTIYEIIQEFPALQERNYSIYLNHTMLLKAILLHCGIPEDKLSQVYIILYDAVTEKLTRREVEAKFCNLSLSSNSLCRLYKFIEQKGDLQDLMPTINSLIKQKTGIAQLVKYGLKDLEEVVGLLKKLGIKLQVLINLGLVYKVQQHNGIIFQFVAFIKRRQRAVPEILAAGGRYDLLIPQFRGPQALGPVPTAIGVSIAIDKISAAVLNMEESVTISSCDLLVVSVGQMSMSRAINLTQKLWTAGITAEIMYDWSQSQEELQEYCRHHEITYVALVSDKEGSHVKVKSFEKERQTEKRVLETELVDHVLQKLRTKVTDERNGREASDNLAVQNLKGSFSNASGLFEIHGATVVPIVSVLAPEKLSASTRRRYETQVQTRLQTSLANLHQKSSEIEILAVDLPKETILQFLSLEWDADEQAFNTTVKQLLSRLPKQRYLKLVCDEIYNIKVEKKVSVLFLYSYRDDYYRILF

For `O=S1(=O)CCCC1C1CCCN(c2cc(-c3cnc4ccc(C(F)F)nn34)ncn2)C1` (centres unmarked) [II-563, 2-(1-(6-(6-(Difluoromethyl)imidazo[1,2-b]pyridazin-3-yl)pyrimidin-4-yl)piperidin-3-yl)tetrahydrothiophene 1,1-dioxide], the Ki lay in the range of 10 to 1000 nM.
In turn, `CS(=O)(=O)NCC1CN(c2cc(-c3cnc4ccc(C(F)F)nn34)ncn2)CCC12CC2` (centres unmarked) [II-566, N-((6-(6-(6-(Difluoromethyl)imidazo[1,2-b]pyridazin-3-yl)pyrimidin-4-yl)-6-azaspiro[2.5]octan-4-yl)methyl)methanesulfonamide] returned a Ki of less than 10 nM.
In the case of `CC1(C)CN(c2cc(-c3cnc4ccc(C(F)F)nn34)ncn2)CC(CNS(C)(=O)=O)N1` (centres unmarked) [II-567, N-((4-(6-(6-(Difluoromethyl)imidazo[1,2-b]pyridazin-3-yl)pyrimidin-4-yl)-6,6-dimethylpiperazin-2-yl)methyl)methanesulfonamide] it was 10 to 1000 nM.
Molecule `CS(=O)(=O)NCC1CN(c2cc(-c3cnc4ccc(C(F)F)nn34)ncn2)C[C@@H]2C[C@H](F)CN12` (stereo partly drawn) [II-568, N-(((7S,8aS)-2-(6-(6-(Difluoromethyl)imidazo[1,2-b]pyridazin-3-yl)pyrimidin-4-yl)-7-fluorooctahydropyrrolo[1,2-a]pyrazin-4-yl)methyl)methanesulfonamide] registered a Ki of less than 10 nM.
In the case of `CC1(C)CN(c2cc(-c3cnc4ccc(C(F)F)nn34)ncn2)CC(CNS(C)(=O)=O)N1` (centres unmarked) [II-569, N-((4-(6-(6-(Difluoromethyl)imidazo[1,2-b]pyridazin-3-yl)pyrimidin-4-yl)-6,6-dimethylpiperazin-2-yl)methyl)methanesulfonamide] it was 10 to 1000 nM; in that of `CC1(C)CN(c2cc(-c3cnc4ccc(C(F)F)nn34)ncn2)CC(CNS(C)(=O)=O)N1` (centres unmarked) [II-570, N-((4-(6-(6-(Difluoromethyl)imidazo[1,2-b]pyridazin-3-yl)pyrimidin-4-yl)-6,6-dimethylpiperazin-2-yl)methyl)methanesulfonamide], 10 to 1000 nM.
`CCC(NS(C)(=O)=O)C1CN(c2cc(-c3cnc4ccc(C(F)F)nn34)ncn2)CCO1` (centres unmarked) [II-571, N-(1-(4-(6-(6-(Difluoromethyl)imidazo[1,2-b]pyridazin-3-yl)pyrimidin-4-yl)morpholin-2-yl)propyl)methanesulfonamide] yielded a Ki of 10 to 1000 nM.
The molecule `CCC(NS(C)(=O)=O)C1CN(c2cc(-c3cnc4ccc(C(F)F)nn34)ncn2)CCO1` (centres unmarked) [II-572, N-(1-(4-(6-(6-(Difluoromethyl)imidazo[1,2-b]pyridazin-3-yl)pyrimidin-4-yl)morpholin-2-yl)propyl)methanesulfonamide] displayed an inhibition constant (Ki) of 10 to 1000 nM.
`CS(C)(=O)=NCC1CCCN(c2cc(-c3cnc4ccc(C(F)F)nn34)ncn2)C1` (centres unmarked) [II-573, (((1-(6-(6-(Difluoromethyl)imidazo[1,2-b]pyridazin-3-yl)pyrimidin-4-yl)piperidin-3-yl)methyl)imino)dimethyl-λ^6-sulfanone] gave an inhibition constant (Ki) of 10 to 1000 nM.
`CS(C)(=O)=NCC1CCCN(c2cc(-c3cnc4ccc(C(F)F)nn34)ncn2)C1` (centres unmarked) [II-574, (((1-(6-(6-(Difluoromethyl)imidazo[1,2-b]pyridazin-3-yl)pyrimidin-4-yl)piperidin-3-yl)methyl)imino)dimethyl-λ^6-sulfanone] registered an inhibitory constant (Ki) of 10 to 1000 nM.
In the case of `Cc1c(CNS(C)(=O)=O)cccc1-c1cc(-c2cnc3ccc(C(F)F)nn23)ncn1` [II-575, N-[[3-[6-[6-(Difluoromethyl)imidazo[1,2-b]pyridazin-3-yl]pyrimidin-4-yl]-2-methyl-phenyl]methyl]methanesulfonamide] it was 10 to 1000 nM.
With `CS(=O)(=O)NCc1cccc(-c2cc(-c3cnc4ccc(C(F)F)nn34)ncn2)c1` [II-576, N-[[3-[6-[6-(Difluoromethyl)imidazo[1,2-b]pyridazin-3-yl]pyrimidin-4-yl]phenyl]methyl]methanesulfonamide], the Ki is less than 10 nM.
In the case of `CC1CC(CO)C(C)N(c2cc(-c3cnc4ccc(C(F)F)nn34)ncn2)C1` (centres unmarked) [II-577, (1-(6-(6-(Difluoromethyl)imidazo[1,2-b]pyridazin-3-yl)pyrimidin-4-yl)-2,5-dimethylpiperidin-3-yl)methanol] it was less than 10 nM; in that of `CC1C(N=S(C)(C)=O)CCCN1c1cc(-c2cnc3ccc(C(F)F)nn23)ncn1` (centres unmarked) [II-578, ((1-(6-(6-(Difluoromethyl)imidazo[1,2-b]pyridazin-3-yl)pyrimidin-4-yl)-2-methylpiperidin-3-yl)imino)dimethyl-λ^6-sulfanone], less than 10 nM.
To `CC1C(N=S(C)(C)=O)CCCN1c1cc(-c2cnc3ccc(C(F)F)nn23)ncn1` (centres unmarked) [II-579, ((1-(6-(6-(Difluoromethyl)imidazo[1,2-b]pyridazin-3-yl)pyrimidin-4-yl)-2-methylpiperidin-3-yl)imino)dimethyl-λ^6-sulfanone] belongs 10 to 1000 nM; to `CS(=N)(=O)c1cccc(-c2cc(-c3cnc4ccc(C(F)F)nn34)ncn2)c1` (centres unmarked) [II-580, (3-(6-(6-(Difluoromethyl)imidazo[1,2-b]pyridazin-3-yl)pyrimidin-4-yl)phenyl)(imino)(methyl)-λ^6-sulfanone], 10 to 1000 nM; to `CC1C(CN=S(C)(C)=O)CCCN1c1cc(-c2cnc3ccc(C(F)F)nn23)ncn1` (centres unmarked) [II-583, (((1-(6-(6-(Difluoromethyl)imidazo[1,2-b]pyridazin-3-yl)pyrimidin-4-yl)-2-methylpiperidin-3-yl)methyl)imino)dimethyl-λ^6-sulfanone], more than 1000 nM.
Turning to `CC1C(CN=S(C)(C)=O)CCCN1c1cc(-c2cnc3ccc(C(F)F)nn23)ncn1` (centres unmarked) [II-584, (((1-(6-(6-(Difluoromethyl)imidazo[1,2-b]pyridazin-3-yl)pyrimidin-4-yl)-2-methylpiperidin-3-yl)methyl)imino)dimethyl-λ^6-sulfanone], the Ki lay within 10 to 1000 nM.
In the case of `CC1CC(CS(C)(=O)=O)C(C)N(c2cc(-c3cnc4ccc(C(F)F)nn34)ncn2)C1` (centres unmarked) [II-587, 6-(Difluoromethyl)-3-[6-[2,5-dimethyl-3-(methylsulfonylmethyl)-1-piperidyl]pyrimidin-4-yl]imidazo[1,2-b]pyridazine] it was less than 10 nM.
In the case of `CC1CC(CS(C)(=O)=O)C(C)N(c2cc(-c3cnc4ccc(C(F)F)nn34)ncn2)C1` (centres unmarked) [II-588, 6-(difluoromethyl)-3-[6-[2,5-dimethyl-3-(methylsulfonylmethyl)-1-piperidyl]pyrimidin-4-yl]imidazo[1,2-b]pyridazine] it was 10 to 1000 nM; in that of `CS(=O)(=O)NC1CN(c2cc(-c3cnc4ccc(C(F)F)nn34)ncn2)CCC1(F)F` (centres unmarked) [II-589, N-(1-(6-(6-(Difluoromethyl)imidazo[1,2-b]pyridazin-3-yl)pyrimidin-4-yl)-4,4-difluoropiperidin-3-yl)methanesulfonamide], 10 to 1000 nM.
To `CC(=O)N1CCN(c2cc(-c3cnc4ccc(Cl)nn34)ncn2)CC1` [II-590, 1-[4-[6-(6-Chloroimidazo[1,2-b]pyridazin-3-yl)pyrimidin-4-yl]piperazin-1-yl]ethanone] belongs more than 1000 nM; to `CC1CC(CNS(C)(=O)=O)CN(c2cc(-c3cnc4ccc(C(F)F)nn34)ncn2)C1C` (centres unmarked) [II-591, N-((1-(6-(6-(Difluoromethyl)imidazo[1,2-b]pyridazin-3-yl)pyrimidin-4-yl)-5,6-dimethylpiperidin-3-yl)methyl)methanesulfonamide], less than 10 nM.

What is called Ki is the dissociation constant of the complex between target and ligand, obtained from inhibition or displacement. Read a low Ki as tighter binding.
